Measured values: publication PMC4143179 (Journal of Natural Products, 2014)

How the values were obtained:
MDCK-MDR1 cells = details: transport with versus without verapamil
[1] = intravenous or inhaled administration; cited from earlier work
P-glycoprotein (P-gp) = details: cited from earlier work
[2] = test system: MCF7 breast cancer cell line; assay: Antiproliferation assay; type: cell-based

COc1cc2nc(N3CCN(C(=O)c4ccco4)CC3)nc(N)c2cc1OC [prazosin]
efflux by P-gp (in words) (MDCK-MDR1 cells): actively effluxed by P-gp

Cn1c(=O)c2c(ncn2C)n(C)c1=O [caffeine]
efflux by P-gp (in words) (MDCK-MDR1 cells): limited efflux by P-gp

COC(=O)[C@@H]1C[C@H](OC(C)=O)C(=O)[C@H]2[C@@]1(C)CC[C@H]1C(=O)O[C@H](CC3=CC(=O)C(OC)=CC3=O)C[C@]21C [Compound 15, (2S,4aR,6aR,7R,9S,10aS,10bR)-Methyl 9-Acetoxy-2-[(4-methoxy-3,6-dioxocyclohexa-1,4-dien-1-yl)methyl]-6a,10b-dimethyl-4,10-dioxododecahydro-1H-benzo[f]isochromene-7-carboxylate]
efflux by P-gp (in words) (MDCK-MDR1 cells): actively effluxed by P-gp

COC(=O)[C@@H]1C[C@H](OC(C)=O)C(=O)[C@H]2[C@@]1(C)CC[C@H]1C(=O)O[C@H](CC3=CC(=O)C(OC)=C(OC)C3=O)C[C@]21C [Compound 14, (2S,4aR,6aR,7R,9S,10aS,10bR)-Methyl 9-Acetoxy-2-[(4,5-dimethoxy-3,6-dioxocyclohexa-1,4-dien-1-yl)methyl]-6a,10b-dimethyl-4,10-dioxododecahydro-1H-benzo[f]isochromene-7-carboxylate]
efflux by P-gp (in words) (MDCK-MDR1 cells): actively effluxed by P-gp

COC(=O)[C@@H]1C[C@H](OC(C)=O)C(=O)[C@H]2[C@@]1(C)CC[C@H]1C(=O)O[C@H](c3ccoc3)C[C@]21C [Salvinorin A, salvinorin A]
efflux by P-gp (in words) (MDCK-MDR1 cells): actively effluxed by P-gp | time to cross the blood–brain barrier [1]: ≤ 1 min | P-glycoprotein substrate (in words) (P-glycoprotein (P-gp)): substrate for P-glycoprotein | antiproliferative effects (in words) [2]: did not show any detectable antiproliferative effects
